Experimental data published in ChEMBL document CHEMBL1201862, “PubChem BioAssay data set” (2004).
Active and inactive are the calls of the source.

Assays:
[1] = molecular target: Voltage-gated inwardly rectifying potassium channel KCNH2 (Homo sapiens, UniProt Q12809); details: Potency;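 further: confirmatory quantitative high-throughput screen measuring inhibition of hERG channel activity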
HeLa = assay: ATP-based viability loss in HeLa cells – cell-based, CellTiter-Glo luminescence, cherry-pick samples, cytotoxicity control for MITF activator project, dose response (AID 540259); assay type: functional; details: Homo sapiens
[2] = molecular target: Glyceraldehyde-3-phosphate dehydrogenase (Homo sapiens, UniProt P04406)
Chain of Glyceraldehyde-3-phosphate dehydrogenase (P04406 whole entry): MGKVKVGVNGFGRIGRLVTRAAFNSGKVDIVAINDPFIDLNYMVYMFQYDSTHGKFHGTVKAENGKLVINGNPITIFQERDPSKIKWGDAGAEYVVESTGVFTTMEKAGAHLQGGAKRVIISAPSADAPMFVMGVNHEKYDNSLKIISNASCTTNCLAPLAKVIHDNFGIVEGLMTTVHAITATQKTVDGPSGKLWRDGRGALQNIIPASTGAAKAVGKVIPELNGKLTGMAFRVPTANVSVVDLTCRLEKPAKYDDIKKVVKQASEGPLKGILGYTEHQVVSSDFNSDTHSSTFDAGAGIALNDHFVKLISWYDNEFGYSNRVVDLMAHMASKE

[3] = molecular target: T1, Alkaline phosphatase, tissue-nonspecific isozyme (Homo sapiens, UniProt P05186); assay: potency against alkaline phosphatase TNAP – biochemical, luminescent, dose response, SAR follow-up (AID 1056)
T1 sequence (P05186 whole entry): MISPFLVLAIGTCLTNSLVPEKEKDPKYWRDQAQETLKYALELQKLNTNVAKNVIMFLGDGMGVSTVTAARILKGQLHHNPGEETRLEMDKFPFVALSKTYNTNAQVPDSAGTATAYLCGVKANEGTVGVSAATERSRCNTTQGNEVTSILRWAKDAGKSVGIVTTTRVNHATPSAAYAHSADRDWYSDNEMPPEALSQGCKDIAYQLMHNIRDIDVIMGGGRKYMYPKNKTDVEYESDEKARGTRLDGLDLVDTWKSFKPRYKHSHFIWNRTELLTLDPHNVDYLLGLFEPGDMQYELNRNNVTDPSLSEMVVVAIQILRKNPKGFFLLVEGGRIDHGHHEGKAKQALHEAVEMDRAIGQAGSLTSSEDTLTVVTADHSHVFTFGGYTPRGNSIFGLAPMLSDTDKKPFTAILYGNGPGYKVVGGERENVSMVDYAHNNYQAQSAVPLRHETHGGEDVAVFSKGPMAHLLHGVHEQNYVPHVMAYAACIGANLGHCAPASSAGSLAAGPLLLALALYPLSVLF

INS1 = assay: INS-1E survival protection against cytokine death – cell-based, luminescence, retest, dose response (AID 449756); assay type: functional; details: Rattus norvegicus;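 further: cell death triggered by IL-1 beta plus TNF-alpha plus IFN-gamma mixture; protective hits raise ATP signal compared with cytokine alone wells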
[4] = molecular target: T2, Carboxy-terminal domain RNA polymerase II polypeptide A small phosphatase 1 (Homo sapiens, UniProt Q9GZU7); assay: CTDSP1 inhibitors, concentration-response, biochemical, absorbance readout, ultra-high-throughput screen actives (AID 540297); assay type: functional
T2 sequence (Q9GZU7 whole entry): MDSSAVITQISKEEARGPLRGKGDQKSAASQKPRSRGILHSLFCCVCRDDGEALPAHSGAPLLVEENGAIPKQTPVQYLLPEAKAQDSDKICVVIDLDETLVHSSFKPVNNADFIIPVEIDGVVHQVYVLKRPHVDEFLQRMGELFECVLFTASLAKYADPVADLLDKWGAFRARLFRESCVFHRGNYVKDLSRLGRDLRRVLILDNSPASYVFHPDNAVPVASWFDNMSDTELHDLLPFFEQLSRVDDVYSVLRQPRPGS

Protein Wnt-3a = Protein Wnt-3a (Mus musculus, UniProt P27467); assay: antagonism of Wnt3a pathway luciferase reporter – Wnt-LIGHT cells, luminescence, selectivity assay for Gli-SUFU antagonist project, dose response (AID 651570); assay type: functional; details: read-out: IC50_Mean;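 further: Wnt-LIGHT reporter cells stimulated with conditioned medium from Wnt3a-producing cells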
Chain of Protein Wnt-3a (P27467 whole entry): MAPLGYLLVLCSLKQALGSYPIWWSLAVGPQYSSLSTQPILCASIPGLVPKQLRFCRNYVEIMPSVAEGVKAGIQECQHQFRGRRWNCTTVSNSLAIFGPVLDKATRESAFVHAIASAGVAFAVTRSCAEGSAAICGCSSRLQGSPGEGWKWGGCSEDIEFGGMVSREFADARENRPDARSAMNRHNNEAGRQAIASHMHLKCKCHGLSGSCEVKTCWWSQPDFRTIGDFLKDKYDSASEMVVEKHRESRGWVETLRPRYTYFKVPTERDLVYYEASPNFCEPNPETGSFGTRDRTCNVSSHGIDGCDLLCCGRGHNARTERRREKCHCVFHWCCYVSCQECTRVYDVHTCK

[5] = molecular target: Dual specificity tyrosine-phosphorylation-regulated kinase 1A (Rattus norvegicus, UniProt Q63470); assay type: biochemical, Homo sapiens
[6] = NIH-3T3 fibroblast cytotoxicity, dose response, cytotoxicity control, cell-based, fluorescence, Alamar Blue, secondary assay (AID 2327); assay type: functional;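 further: NIH-3T3 mouse fibroblasts cultured with fluconazole at 8 µg/mL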
[7] = fluconazole-exposed Candida albicans growth modulators – fluorescence, retest, confirmation (AID 2467); assay type: functional, cell-based
[8] = viability loss in THP-1 monocytes – THP-1 cells, cytotoxicity control for Vif-APOBEC3G degradation inhibitor project, dose response (AID 1117359); assay type: functional; details: THP-1
[9] = Luminescence Cell-Based Dose Retest to Confirm Inhibitors of Cancer Stem Cells. [Related pubchem assays (depositor defined):AID2717, AID2721]; assay type: functional; details: Homo sapiens
Large T antigen = Large T antigen (Simian virus 40, UniProt P03070); assay type: functional, Betapolyomavirus macacae;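 further: Confirmatory-stage PubChem screen for compounds that inhibit SV40 T antigen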
Chain of Large T antigen (P03070 whole entry): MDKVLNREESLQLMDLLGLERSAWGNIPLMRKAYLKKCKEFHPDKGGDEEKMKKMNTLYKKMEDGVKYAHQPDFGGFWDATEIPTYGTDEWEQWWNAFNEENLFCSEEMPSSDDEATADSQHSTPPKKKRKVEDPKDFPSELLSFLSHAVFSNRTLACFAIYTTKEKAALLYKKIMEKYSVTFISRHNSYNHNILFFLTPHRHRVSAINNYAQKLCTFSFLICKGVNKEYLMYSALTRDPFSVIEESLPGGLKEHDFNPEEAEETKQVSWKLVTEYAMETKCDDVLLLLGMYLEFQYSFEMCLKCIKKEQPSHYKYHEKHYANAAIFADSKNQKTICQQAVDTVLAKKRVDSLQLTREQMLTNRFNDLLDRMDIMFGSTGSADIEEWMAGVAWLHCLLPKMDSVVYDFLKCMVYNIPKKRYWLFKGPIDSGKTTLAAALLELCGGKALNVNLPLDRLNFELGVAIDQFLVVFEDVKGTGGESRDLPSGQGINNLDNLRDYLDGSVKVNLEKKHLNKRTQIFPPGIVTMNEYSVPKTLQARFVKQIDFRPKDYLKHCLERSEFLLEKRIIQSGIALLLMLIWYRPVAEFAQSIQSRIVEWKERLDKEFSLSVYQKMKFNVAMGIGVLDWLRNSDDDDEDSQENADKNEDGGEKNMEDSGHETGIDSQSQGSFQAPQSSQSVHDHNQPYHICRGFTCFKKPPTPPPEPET

[10] = molecular target: T3, Rac GTPase-activating protein 1 (Homo sapiens, UniProt Q9H0H5); assay: blockers of MgcRacGAP-driven Rac1 GTP hydrolysis – biochemical, ADP Hunter fluorescence, primary and confirmatory, confirmation (AID 624330); assay type: functional
T3 sequence (Q9H0H5 whole entry): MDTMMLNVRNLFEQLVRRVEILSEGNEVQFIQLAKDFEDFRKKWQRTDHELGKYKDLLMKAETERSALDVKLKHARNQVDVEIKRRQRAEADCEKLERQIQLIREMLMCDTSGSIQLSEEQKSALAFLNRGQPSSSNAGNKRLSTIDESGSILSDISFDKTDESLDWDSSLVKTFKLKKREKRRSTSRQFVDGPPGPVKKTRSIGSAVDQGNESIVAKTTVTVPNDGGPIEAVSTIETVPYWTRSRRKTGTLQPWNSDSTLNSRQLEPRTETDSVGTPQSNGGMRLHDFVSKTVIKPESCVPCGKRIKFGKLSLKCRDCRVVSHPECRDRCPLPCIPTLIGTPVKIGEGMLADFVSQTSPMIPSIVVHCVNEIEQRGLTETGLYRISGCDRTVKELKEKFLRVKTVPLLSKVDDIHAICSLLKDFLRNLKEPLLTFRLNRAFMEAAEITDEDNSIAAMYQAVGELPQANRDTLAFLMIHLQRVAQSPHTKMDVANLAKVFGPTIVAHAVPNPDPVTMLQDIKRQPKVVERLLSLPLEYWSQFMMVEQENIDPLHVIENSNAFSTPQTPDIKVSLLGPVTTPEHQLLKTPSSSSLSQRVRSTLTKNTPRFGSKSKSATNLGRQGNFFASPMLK

[11] = molecular target: Mitogen-activated protein kinase 10 (Homo sapiens, UniProt P53779); assay: Dose response biochemical screening assay for inhibitors of c-Jun N-Terminal Kinase 3 (JNK3). [Related pubchem assays: 746 ]
Chain of Mitogen-activated protein kinase 10 (P53779 whole entry): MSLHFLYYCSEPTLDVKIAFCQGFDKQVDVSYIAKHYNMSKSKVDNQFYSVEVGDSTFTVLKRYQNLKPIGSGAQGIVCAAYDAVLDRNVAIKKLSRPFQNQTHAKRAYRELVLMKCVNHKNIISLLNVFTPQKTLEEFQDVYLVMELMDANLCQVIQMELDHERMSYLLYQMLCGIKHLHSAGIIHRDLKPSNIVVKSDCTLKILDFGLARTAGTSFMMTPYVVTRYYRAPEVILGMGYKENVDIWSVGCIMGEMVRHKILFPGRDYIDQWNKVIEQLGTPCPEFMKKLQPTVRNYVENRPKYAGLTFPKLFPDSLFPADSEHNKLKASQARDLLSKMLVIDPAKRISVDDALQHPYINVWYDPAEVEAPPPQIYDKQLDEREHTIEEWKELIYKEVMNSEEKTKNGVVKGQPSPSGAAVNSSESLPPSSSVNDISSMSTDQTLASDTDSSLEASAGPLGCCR

Cytochrome P450 2C19 = Cytochrome P450 2C19 (Homo sapiens, UniProt P33261); assay: Cytochrome panel assay with activity outcomes. Panel member name: p450-cyp2c19 Compounds with AC50 equal or less than 10 uM are considered active; assay type: functional; details: read-out: AC50
Chain of Cytochrome P450 2C19 (P33261 whole entry): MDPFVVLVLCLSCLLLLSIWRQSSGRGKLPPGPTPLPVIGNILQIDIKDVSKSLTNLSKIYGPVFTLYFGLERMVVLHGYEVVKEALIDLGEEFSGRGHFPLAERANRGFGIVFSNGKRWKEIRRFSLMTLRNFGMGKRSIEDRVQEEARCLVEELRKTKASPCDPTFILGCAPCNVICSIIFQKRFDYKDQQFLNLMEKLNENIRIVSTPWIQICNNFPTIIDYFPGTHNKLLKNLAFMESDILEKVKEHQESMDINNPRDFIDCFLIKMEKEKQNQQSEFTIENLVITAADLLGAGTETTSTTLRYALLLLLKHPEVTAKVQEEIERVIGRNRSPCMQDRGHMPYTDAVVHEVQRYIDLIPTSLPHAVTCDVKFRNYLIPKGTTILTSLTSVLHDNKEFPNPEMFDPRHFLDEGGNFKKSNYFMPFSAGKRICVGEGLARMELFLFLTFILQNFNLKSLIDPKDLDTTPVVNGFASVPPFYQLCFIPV

Cytochrome P450 2D6 = Cytochrome P450 2D6 (Homo sapiens, UniProt P10635);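 further: CYP2D6 member of a cytochrome P450 panel assay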
Chain of Cytochrome P450 2D6 (P10635 whole entry): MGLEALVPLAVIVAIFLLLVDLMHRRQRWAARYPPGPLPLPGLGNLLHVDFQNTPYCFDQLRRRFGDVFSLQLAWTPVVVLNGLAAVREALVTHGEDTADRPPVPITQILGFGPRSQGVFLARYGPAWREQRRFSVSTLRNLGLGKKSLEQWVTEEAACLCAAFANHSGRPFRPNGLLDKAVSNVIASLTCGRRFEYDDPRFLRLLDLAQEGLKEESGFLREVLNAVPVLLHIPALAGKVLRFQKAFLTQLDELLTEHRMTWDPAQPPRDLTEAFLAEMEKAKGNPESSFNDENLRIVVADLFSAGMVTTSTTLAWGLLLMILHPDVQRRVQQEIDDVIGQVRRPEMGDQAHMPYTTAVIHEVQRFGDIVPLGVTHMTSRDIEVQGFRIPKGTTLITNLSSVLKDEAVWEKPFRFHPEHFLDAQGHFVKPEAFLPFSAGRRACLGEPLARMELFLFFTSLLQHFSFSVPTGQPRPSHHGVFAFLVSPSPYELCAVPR

Cytochrome P450 1A2 = molecular target: T4, Cytochrome P450 1A2 (Homo sapiens, UniProt P05177);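 further: PubChem cytochrome P450 panel assay, CYP1A2 panel member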
T4 sequence (P05177 whole entry): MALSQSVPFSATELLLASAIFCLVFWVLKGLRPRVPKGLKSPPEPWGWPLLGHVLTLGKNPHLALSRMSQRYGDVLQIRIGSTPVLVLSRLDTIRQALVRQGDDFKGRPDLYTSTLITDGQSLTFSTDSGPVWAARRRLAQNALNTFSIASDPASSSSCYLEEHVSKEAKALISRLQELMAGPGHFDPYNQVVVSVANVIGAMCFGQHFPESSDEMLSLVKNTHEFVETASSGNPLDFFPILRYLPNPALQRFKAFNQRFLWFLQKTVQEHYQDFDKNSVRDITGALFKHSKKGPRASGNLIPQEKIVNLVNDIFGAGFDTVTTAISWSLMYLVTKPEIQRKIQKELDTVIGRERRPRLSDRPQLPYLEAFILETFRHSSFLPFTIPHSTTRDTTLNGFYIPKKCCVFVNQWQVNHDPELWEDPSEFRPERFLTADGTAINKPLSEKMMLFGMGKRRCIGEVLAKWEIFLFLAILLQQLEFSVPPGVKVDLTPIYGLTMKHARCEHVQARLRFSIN

Cytochrome P450 3A4 = Cytochrome P450 3A4 (Homo sapiens, UniProt P08684);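 further: CYP3A4 tested as one member of a cytochrome P450 panel screen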
Chain of Cytochrome P450 3A4 (P08684 whole entry): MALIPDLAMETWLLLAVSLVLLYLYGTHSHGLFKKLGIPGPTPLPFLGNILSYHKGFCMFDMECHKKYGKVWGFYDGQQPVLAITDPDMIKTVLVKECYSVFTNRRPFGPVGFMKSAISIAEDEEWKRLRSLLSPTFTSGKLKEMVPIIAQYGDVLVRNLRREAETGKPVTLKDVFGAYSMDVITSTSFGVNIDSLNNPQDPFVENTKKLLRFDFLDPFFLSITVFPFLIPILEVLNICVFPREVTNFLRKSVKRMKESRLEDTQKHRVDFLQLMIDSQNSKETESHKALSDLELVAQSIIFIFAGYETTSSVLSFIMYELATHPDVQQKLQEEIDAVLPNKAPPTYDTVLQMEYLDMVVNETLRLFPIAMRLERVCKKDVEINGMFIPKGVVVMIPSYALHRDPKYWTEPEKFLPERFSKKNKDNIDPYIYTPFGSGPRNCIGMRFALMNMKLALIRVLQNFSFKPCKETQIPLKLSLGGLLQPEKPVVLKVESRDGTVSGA

Vero = assay: cells; assay type: functional; details: Chlorocebus sabaeus
Aminopeptidase N = molecular target: T5, Aminopeptidase N (Plasmodium falciparum FcB1/Columbia, UniProt O96935); assay: malaria alanyl aminopeptidase activity blockers – biochemical, fluorogenic H-Leu-NHMec substrate, 1536-well (AID 1445); parameters: species or system Plasmodium falciparum 3D7, 3D7
T5 sequence (O96935 whole entry): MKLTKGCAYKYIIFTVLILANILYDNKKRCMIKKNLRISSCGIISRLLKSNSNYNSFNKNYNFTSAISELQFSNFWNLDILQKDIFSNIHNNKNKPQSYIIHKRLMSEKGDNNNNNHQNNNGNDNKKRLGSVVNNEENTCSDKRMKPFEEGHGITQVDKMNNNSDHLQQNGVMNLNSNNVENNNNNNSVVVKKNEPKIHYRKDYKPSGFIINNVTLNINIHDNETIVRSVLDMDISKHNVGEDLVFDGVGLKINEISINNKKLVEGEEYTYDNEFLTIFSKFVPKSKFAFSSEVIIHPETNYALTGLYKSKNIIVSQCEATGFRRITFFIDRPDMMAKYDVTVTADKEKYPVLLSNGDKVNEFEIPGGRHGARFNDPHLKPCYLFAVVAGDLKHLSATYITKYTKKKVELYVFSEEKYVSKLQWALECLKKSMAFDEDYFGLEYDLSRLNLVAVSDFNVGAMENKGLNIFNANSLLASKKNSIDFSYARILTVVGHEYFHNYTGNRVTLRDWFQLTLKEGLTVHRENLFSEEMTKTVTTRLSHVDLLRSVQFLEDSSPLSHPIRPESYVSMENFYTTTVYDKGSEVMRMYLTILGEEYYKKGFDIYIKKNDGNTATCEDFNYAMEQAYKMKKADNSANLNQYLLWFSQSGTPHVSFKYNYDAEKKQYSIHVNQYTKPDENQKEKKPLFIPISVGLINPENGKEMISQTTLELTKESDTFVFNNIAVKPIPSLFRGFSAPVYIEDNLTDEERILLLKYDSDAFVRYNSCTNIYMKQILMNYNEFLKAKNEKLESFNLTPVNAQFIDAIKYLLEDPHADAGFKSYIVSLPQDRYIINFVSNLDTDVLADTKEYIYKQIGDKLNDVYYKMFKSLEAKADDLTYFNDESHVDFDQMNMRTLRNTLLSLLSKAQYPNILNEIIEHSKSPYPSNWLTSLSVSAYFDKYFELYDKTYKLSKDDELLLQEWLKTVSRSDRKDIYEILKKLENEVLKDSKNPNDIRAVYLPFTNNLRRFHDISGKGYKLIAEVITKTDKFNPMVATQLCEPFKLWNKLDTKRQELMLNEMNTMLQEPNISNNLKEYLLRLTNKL

Chain of Voltage-gated inwardly rectifying potassium channel KCNH2 (Q12809 whole entry): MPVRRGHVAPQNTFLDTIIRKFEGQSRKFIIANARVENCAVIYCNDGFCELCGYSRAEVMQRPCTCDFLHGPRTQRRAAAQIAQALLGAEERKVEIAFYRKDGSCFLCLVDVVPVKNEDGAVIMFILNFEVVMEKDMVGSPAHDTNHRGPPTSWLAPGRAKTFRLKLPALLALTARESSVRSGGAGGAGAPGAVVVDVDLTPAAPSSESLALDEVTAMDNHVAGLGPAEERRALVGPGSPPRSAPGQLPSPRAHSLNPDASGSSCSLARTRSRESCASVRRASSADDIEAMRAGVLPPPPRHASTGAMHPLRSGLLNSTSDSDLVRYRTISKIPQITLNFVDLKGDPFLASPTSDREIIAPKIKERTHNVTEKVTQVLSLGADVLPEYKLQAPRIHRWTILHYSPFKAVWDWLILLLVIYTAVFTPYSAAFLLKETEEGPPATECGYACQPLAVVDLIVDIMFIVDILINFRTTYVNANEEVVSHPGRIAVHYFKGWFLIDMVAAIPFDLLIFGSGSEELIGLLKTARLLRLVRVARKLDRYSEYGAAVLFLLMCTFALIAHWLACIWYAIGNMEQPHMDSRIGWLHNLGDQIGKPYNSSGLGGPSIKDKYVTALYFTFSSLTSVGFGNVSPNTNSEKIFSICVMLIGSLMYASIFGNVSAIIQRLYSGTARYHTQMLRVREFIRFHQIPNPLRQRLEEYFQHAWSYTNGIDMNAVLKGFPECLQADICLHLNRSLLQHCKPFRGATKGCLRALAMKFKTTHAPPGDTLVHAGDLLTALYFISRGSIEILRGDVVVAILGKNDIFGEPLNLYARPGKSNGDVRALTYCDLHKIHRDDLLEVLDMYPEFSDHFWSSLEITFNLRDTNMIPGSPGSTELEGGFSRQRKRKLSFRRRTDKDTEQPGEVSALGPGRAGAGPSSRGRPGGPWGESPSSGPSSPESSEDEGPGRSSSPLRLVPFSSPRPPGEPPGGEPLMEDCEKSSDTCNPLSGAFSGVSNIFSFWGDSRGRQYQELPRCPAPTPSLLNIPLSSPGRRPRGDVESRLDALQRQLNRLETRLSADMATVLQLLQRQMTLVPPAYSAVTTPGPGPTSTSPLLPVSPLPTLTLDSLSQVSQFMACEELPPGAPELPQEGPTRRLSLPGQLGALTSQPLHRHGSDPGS

Compound: CN1CCN(c2ccc3ccccc3n2)CC1
- AC50 [1]: 35.5 µM (inconclusive)

Compound: CCCCN1C(=O)/C(=C/C=C2\SCCN2C)SC1=S
- AC50 (HeLa): 39.1 µM (active)

Compound: NNC(=O)c1cc(-c2cc(F)c(F)cc2F)[nH]n1
- IC50 [2]: > 10 µM (inconclusive)
- IC50 [3]: 0.316 µM (active)

Compound: CCCCC(CC)CNCC(CC)CCCC (stereo unspecified)
- AC50 [1]: 10 µM (inconclusive)

Compound: Cc1c(-c2ccccc2)n[nH]c1C(=O)O
- IC50 [2]: > 100 µM (not active)
- IC50 [3]: > 100 µM (inactive)

Compound: CC[N+](C)(CC)CCC(c1ccccc1)C1CCCCC1 (stereo unspecified)
- AC50 (INS1): 233 µM (active)
- IC50 [4]: 4.65 µM (active)
- IC50 (Protein Wnt-3a): 39 µM (inactive)

Compound: c1ccc(-c2noc(COc3ccc4c(c3)OCO4)n2)cc1
- AC50 (HeLa): 339 µM (active)

Compound: CS(=O)(=O)Nc1ccc(-c2cc(/C=C3\SC(N)=NC3=O)cnc2O)cc1
- AC50 [5]: 0.265 µM (active)

Compound: O=C(Nc1cccc(Cl)c1)Nc1nccs1
- EC50 [6]: > 160 µM (inactive)
- EC50 [7]: 1.17 µM (active)
- AC50 [5]: 8.46 µM (active)

Compound: COc1ccc(NC(=O)/C(C#N)=C/c2ccc(Br)o2)cc1
- IC50 [4]: 5.43 µM (active)
- CC50 [8]: 27.4 µM (active)

Compound: O=C(Nc1ccc(Cl)c(Cl)c1)Nc1ccccc1O
- AC50 [9]: 5.67 µM (active)
- AC50 (HeLa): 49.7 µM (active)

Compound: c1ccc(CSCc2ccccc2)cc1
- AC50 [1]: 31.6 µM (inconclusive)

Compound: O=C1OCC/C1=C\c1ccc(O)cc1
- IC50 (Large T antigen): 17.4 µM (active)
- AC50 [5]: 0.585 µM (active)
- IC50 [10]: 28.9 µM (active)

Compound: CCN1C(=O)/C(=C2/Sc3ccccc3N2CC)S/C1=N\c1nc[nH]n1
- AC50 [5]: 1.04 µM (active)

Compound: Cn1c(SCC(=O)c2ccc(O)c(O)c2)nnc1-c1ccccc1
- IC50 [3]: 93.4 µM (active)

Compound: NC(=O)c1cc(Br)cc2c3c([nH]c12)CCCC3
- IC50 [11]: 12.5 µM (not active)
- AC50 [5]: 9.32 µM (active)

Compound: O=C(O)/C=C/c1ccc(/C=C/C(=O)O)cc1
- AC50 [1]: 79.4 µM (inconclusive)

Compound: C[C@H](Cc1ccc(O)c(O)c1)[C@@H](C)Cc1ccc(O)c(O)c1 [MASOPROCOL]
- AC50 (Cytochrome P450 2C19): 15.8 µM (inconclusive)
- AC50 (Cytochrome P450 2D6): 39.8 µM (inconclusive)
- AC50 (Cytochrome P450 1A2): 25.1 µM (inconclusive)
- AC50 [1]: 35.5 µM (inconclusive)
- AC50 (Cytochrome P450 3A4): inconclusive

Compound: CCCCC(=O)NC(c1ccc([N+](=O)[O-])cc1)c1c(O)ccc2ccccc12 (stereo unspecified)
- CC50 (Vero): 9.36 µM (active)

Compound: COc1ccccc1NS(=O)(=O)c1ccc(Cl)c(NC(=O)C(C)N2C(=O)c3ccccc3C2=O)c1 (stereo unspecified)
- IC50 (Aminopeptidase N): 26.9 µM (active)

Compound: CNc1ccc(/C=C(\CCC(=O)O)c2nc3ccccc3s2)cc1[N+](=O)[O-]
- IC50 (Aminopeptidase N): 43.3 µM (active)
